Measured values from ChEMBL document CHEMBL3603774, “Novel 5-functionalized-pyrazoles: Synthesis, characterization and pharmacological screening” (Bioorg Med Chem Lett, 2015).
In brackets after ≈: the same amount, converted by molar mass.

Columns and labels:
Aspergillus flavus [1] = assay: Antifungal activity against Aspergillus flavus MTCC 873 at 50 ug/ml after 24 hrs by disc diffusion method; format: functional; conditions: MTCC 873, 24 h, read-out: IZ
Bacillus cereus [2] = assay: Antibacterial activity against Bacillus cereus MTCC 8372 at 50 ug/ml after 24 hrs by disc diffusion method; format: functional; conditions: MTCC 8372, 24 h, read-out: IZ
Klebsiella pneumoniae [3] = assay: Antibacterial activity against Klebsiella pneumoniae MTCC 3384 at 100 ug/ml after 24 hrs by disc diffusion method; format: functional; conditions: MTCC 3384, 24 h, read-out: IZ
Aspergillus niger [4] = assay: Antifungal activity against Aspergillus niger MTCC 281 after 48 hrs by microdilution method; format: functional; conditions: MTCC 281, 48 h
[5] = Inhibition of alpha-glucosidase (unknown origin) using p-nitrophenol glycoside as substrate after 30 mins by colorimetric analysis; parameters: species or system Homo sapiens
Aspergillus niger [6] = assay: Antifungal activity against Aspergillus niger MTCC 281 assessed as concentration required to completely destroy test microorganisms after 24 hrs; format: functional; conditions: MTCC 281, 24 h
Aspergillus niger [7] = assay: Antifungal activity against Aspergillus niger MTCC 281 at 100 ug/ml after 24 hrs by disc diffusion method; format: functional; conditions: MTCC 281, 24 h, read-out: IZ
Escherichia coli [8] = assay: Antibacterial activity against Escherichia coli MTCC 724 assessed as concentration required to completely destroy test microorganisms after 24 hrs; format: functional; conditions: MTCC 724, 24 h
Aspergillus flavus [9] = assay: Antifungal activity against Aspergillus flavus MTCC 873 after 48 hrs by microdilution method; format: functional; conditions: MTCC 873, 48 h
Aspergillus flavus [10] = assay: Antifungal activity against Aspergillus flavus MTCC 873 assessed as concentration required to completely destroy test microorganisms after 24 hrs; format: functional; conditions: MTCC 873, 24 h
Bacillus cereus [11] = assay: Antibacterial activity against Bacillus cereus MTCC 8372 assessed as concentration required to completely destroy test microorganisms after 24 hrs; format: functional; conditions: MTCC 8372, 24 h
Staphylococcus aureus [12] = assay: Antibacterial activity against Staphylococcus aureus MTCC 96 assessed as concentration required to completely destroy test microorganisms after 24 hrs; format: functional; conditions: MTCC 96, 24 h
Staphylococcus aureus [13] = assay: Antibacterial activity against Staphylococcus aureus MTCC 96 after 24 hrs by microdilution method; format: functional; conditions: MTCC 96, 24 h
Klebsiella pneumoniae [14] = assay: Antibacterial activity against Klebsiella pneumoniae MTCC 3384 at 50 ug/ml after 24 hrs by disc diffusion method; format: functional; conditions: MTCC 3384, 24 h, read-out: IZ
Bacillus cereus [15] = assay: Antibacterial activity against Bacillus cereus MTCC 8372 after 24 hrs by microdilution method; format: functional; conditions: MTCC 8372, 24 h
Escherichia coli [16] = assay: Antibacterial activity against Escherichia coli MTCC 724 at 50 ug/ml after 24 hrs by disc diffusion method; format: functional; conditions: MTCC 724, 24 h, read-out: IZ
Klebsiella pneumoniae [17] = assay: Antibacterial activity against Klebsiella pneumoniae MTCC 3384 after 24 hrs by microdilution method; format: functional; conditions: MTCC 3384, 24 h
Bacillus cereus [18] = assay: Antibacterial activity against Bacillus cereus MTCC 8372 at 100 ug/ml after 24 hrs by disc diffusion method; format: functional; conditions: MTCC 8372, 24 h, read-out: IZ
Escherichia coli [19] = assay: Antibacterial activity against Escherichia coli MTCC 724 after 24 hrs by microdilution method; format: functional; conditions: MTCC 724, 24 h
Alpha amylase = target: T1, Alpha amylase (Homo sapiens, UniProt P0DUB6); assay: Inhibition of alpha-amylase (unknown origin) using starch as substrate after 30 mins by spectrophotometer analysis
T1 sequence (P0DUB6 whole entry): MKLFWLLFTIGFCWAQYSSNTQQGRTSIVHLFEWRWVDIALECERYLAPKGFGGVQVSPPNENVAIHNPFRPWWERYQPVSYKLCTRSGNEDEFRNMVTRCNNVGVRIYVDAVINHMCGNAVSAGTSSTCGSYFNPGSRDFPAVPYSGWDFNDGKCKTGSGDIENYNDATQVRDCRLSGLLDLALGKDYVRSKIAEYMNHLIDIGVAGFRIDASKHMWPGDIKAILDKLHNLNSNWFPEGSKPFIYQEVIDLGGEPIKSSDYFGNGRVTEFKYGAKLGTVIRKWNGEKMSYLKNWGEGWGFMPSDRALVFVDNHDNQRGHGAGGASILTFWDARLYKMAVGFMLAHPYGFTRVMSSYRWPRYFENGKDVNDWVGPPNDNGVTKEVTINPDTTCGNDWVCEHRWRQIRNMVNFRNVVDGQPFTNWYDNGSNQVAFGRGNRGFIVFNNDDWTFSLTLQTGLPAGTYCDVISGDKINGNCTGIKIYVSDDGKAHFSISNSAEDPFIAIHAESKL

Escherichia coli [20] = assay: Antibacterial activity against Escherichia coli MTCC 724 at 100 ug/ml after 24 hrs by disc diffusion method; format: functional; conditions: MTCC 724, 24 h, read-out: IZ
Staphylococcus aureus [21] = assay: Antibacterial activity against Staphylococcus aureus MTCC 96 at 100 ug/ml after 24 hrs by disc diffusion method; format: functional; conditions: MTCC 96, 24 h, read-out: IZ
Staphylococcus aureus [22] = assay: Antibacterial activity against Staphylococcus aureus MTCC 96 at 50 ug/ml after 24 hrs by disc diffusion method; format: functional; conditions: MTCC 96, 24 h, read-out: IZ
Aspergillus niger [23] = assay: Antifungal activity against Aspergillus niger MTCC 281 at 50 ug/ml after 24 hrs by disc diffusion method; format: functional; conditions: MTCC 281, 24 h, read-out: IZ
Klebsiella pneumoniae [24] = assay: Antibacterial activity against Klebsiella pneumoniae MTCC 3384 assessed as concentration required to completely destroy test microorganisms after 24 hrs; format: functional; conditions: MTCC 3384, 24 h
Aspergillus flavus [25] = assay: Antifungal activity against Aspergillus flavus MTCC 873 at 100 ug/ml after 24 hrs by disc diffusion method; format: functional; conditions: MTCC 873, 24 h, read-out: IZ

Compound | zone of inhibition at 50 µg/mL (Aspergillus flavus [1]) [mm] | zone of inhibition at 50 µg/mL (Bacillus cereus [2]) [mm] | zone of inhibition at 100 µg/mL (Klebsiella pneumoniae [3]) [mm] | MIC (Aspergillus niger [4]) [mg/L] | IC50 [5] [mg/L] | MFC (Aspergillus niger [6]) [mg/L] | zone of inhibition at 100 µg/mL (Aspergillus niger [7]) [mm] | MBC (Escherichia coli [8]) [mg/L] | MIC (Aspergillus flavus [9]) [mg/L] | MFC (Aspergillus flavus [10]) [mg/L] | MBC (Bacillus cereus [11]) [mg/L] | MBC (Staphylococcus aureus [12]) [mg/L] | MIC (Staphylococcus aureus [13]) [mg/L] | zone of inhibition at 50 µg/mL (Klebsiella pneumoniae [14]) [mm] | MIC (Bacillus cereus [15]) [mg/L] | zone of inhibition at 50 µg/mL (Escherichia coli [16]) [mm] | MIC (Klebsiella pneumoniae [17]) [mg/L] | zone of inhibition at 100 µg/mL (Bacillus cereus [18]) [mm] | MIC (Escherichia coli [19]) [mg/L] | IC50 (Alpha amylase) [mg/L] | also measured
CCOC(=O)c1c(-c2ccccc2)nn(-c2ccccc2)c1COc1cc(OC)c(C=O)c(OC)c1 | 10 | 6 | 19 | 45 (≈ 92.5 µM) | 35 (≈ 71.9 µM) | 190 (≈ 391 µM) | 11 | 160 (≈ 329 µM) | 50 (≈ 103 µM) | 215 (≈ 442 µM) | 200 (≈ 411 µM) | 200 (≈ 411 µM) | 40 (≈ 82.2 µM) | 10 | 40 (≈ 82.2 µM) | 15 | 20 (≈ 41.1 µM) | 10 | 25 (≈ 51.4 µM) | 40 (≈ 82.2 µM) | zone of inhibition at 100 µg/mL (Escherichia coli [20]): 30 mm; zone of inhibition at 100 µg/mL (Staphylococcus aureus [21]): 10 mm; zone of inhibition at 50 µg/mL (Staphylococcus aureus [22]): 8 mm; zone of inhibition at 50 µg/mL (Aspergillus niger [23]): 14 mm; MBC (Klebsiella pneumoniae [24]): 150 mg/L (≈ 308 µM); zone of inhibition at 100 µg/mL (Aspergillus flavus [25]): 12 mm
CCOC(=O)c1c(-c2ccccc2)nn(-c2ccccc2)c1COc1ccccc1C=O | 10 | 4 | 9 | 50 (≈ 117 µM) | 40 (≈ 93.8 µM) | 225 (≈ 528 µM) | 10 | 250 (≈ 586 µM) | 50 (≈ 117 µM) | 270 (≈ 633 µM) | 250 (≈ 586 µM) | 220 (≈ 516 µM) | 55 (≈ 129 µM) | 6 | 45 (≈ 106 µM) | 3 | 85 (≈ 199 µM) | 16 | 65 (≈ 152 µM) | 40 (≈ 93.8 µM) | zone of inhibition at 100 µg/mL (Escherichia coli [20]): 8 mm; zone of inhibition at 100 µg/mL (Staphylococcus aureus [21]): 12 mm; zone of inhibition at 50 µg/mL (Staphylococcus aureus [22]): 2 mm; zone of inhibition at 50 µg/mL (Aspergillus niger [23]): 10 mm; MBC (Klebsiella pneumoniae [24]): 260 mg/L (≈ 610 µM); zone of inhibition at 100 µg/mL (Aspergillus flavus [25]): 5 mm
CCOC(=O)c1c(-c2ccccc2)nn(-c2ccccc2)c1Cn1c(S)nc2ccc(OC(F)F)cc21 | 18 | 11 | 28 | 25 (≈ 48 µM) | 15 (≈ 28.8 µM) | 145 (≈ 279 µM) | 22 | 135 (≈ 259 µM) | 30 (≈ 57.6 µM) | 155 (≈ 298 µM) | 130 (≈ 250 µM) | 120 (≈ 231 µM) | 20 (≈ 38.4 µM) | 16 | 10 (≈ 19.2 µM) | 20 | 15 (≈ 28.8 µM) | 26 | 15 (≈ 28.8 µM) | 10 (≈ 19.2 µM) | zone of inhibition at 100 µg/mL (Escherichia coli [20]): 33 mm; zone of inhibition at 100 µg/mL (Staphylococcus aureus [21]): 21 mm; zone of inhibition at 50 µg/mL (Staphylococcus aureus [22]): 12 mm; zone of inhibition at 50 µg/mL (Aspergillus niger [23]): 12 mm; MBC (Klebsiella pneumoniae [24]): 130 mg/L (≈ 250 µM); zone of inhibition at 100 µg/mL (Aspergillus flavus [25]): 20 mm
CCOC(=O)c1c(-c2ccccc2)nn(-c2ccccc2)c1Cn1cnc2cc(C)ccc21 | 16 | 8 | 11 | 45 (≈ 103 µM) | 45 (≈ 103 µM) | 165 (≈ 378 µM) | 24 | 205 (≈ 470 µM) | 40 (≈ 91.6 µM) | 270 (≈ 619 µM) | 220 (≈ 504 µM) | 205 (≈ 470 µM) | 45 (≈ 103 µM) | 9 | 50 (≈ 115 µM) | 8 | 45 (≈ 103 µM) | 11 | 40 (≈ 91.6 µM) | 45 (≈ 103 µM) | zone of inhibition at 100 µg/mL (Escherichia coli [20]): 12 mm; zone of inhibition at 100 µg/mL (Staphylococcus aureus [21]): 12 mm; zone of inhibition at 50 µg/mL (Staphylococcus aureus [22]): 6 mm; zone of inhibition at 50 µg/mL (Aspergillus niger [23]): 12 mm; MBC (Klebsiella pneumoniae [24]): 240 mg/L (≈ 550 µM); zone of inhibition at 100 µg/mL (Aspergillus flavus [25]): 21 mm
CCOC(=O)c1c(-c2ccccc2)nn(-c2ccccc2)c1Cn1cnc2ccccc21 | 12 | 6 | 10 | 50 (≈ 118 µM) | 30 (≈ 71 µM) | 280 (≈ 663 µM) | 20 | 270 (≈ 639 µM) | 45 (≈ 107 µM) | 275 (≈ 651 µM) | 285 (≈ 675 µM) | 290 (≈ 686 µM) | 55 (≈ 130 µM) | 6 | 60 (≈ 142 µM) | 8 | 40 (≈ 94.7 µM) | 12 | 55 (≈ 130 µM) | 35 (≈ 82.8 µM) | zone of inhibition at 100 µg/mL (Escherichia coli [20]): 10 mm; zone of inhibition at 100 µg/mL (Staphylococcus aureus [21]): 12 mm; zone of inhibition at 50 µg/mL (Staphylococcus aureus [22]): 6 mm; zone of inhibition at 50 µg/mL (Aspergillus niger [23]): 25 mm; MBC (Klebsiella pneumoniae [24]): 220 mg/L (≈ 521 µM); zone of inhibition at 100 µg/mL (Aspergillus flavus [25]): 15 mm
